# Experiments:
# Format in all cases: physicochemical
# [1] = Vitamin content of solution (C) in polyolefin holders after autoclaving and storage at 40° C. for four months, measured through HPLC (Example 3)
# Description: Solution (C) (4 ml) prepared in Example 1 was charged into each of holders made of the materials shown in Table 3, to thereby obtain a holder which contains a solution of vitamin D3. Each of these holders containing a solution of vitamin D3 was subjected to autoclaving and wrapped in a nylon multi-layered-film bag together with a deoxidizing agent (trade name: Ageless, product of Mitsubishi Gas Chem. Co., Inc.). The thus-wrapped holders were allowed to stand at 40° C. for four months. Thereafter, the content of each vitamin in each holder was measured through HPLC. The content of each vitamin is represented by a percentage (%) of the initially incorporated amount.
# [2] = Vitamin content of transfusion products of Examples 1 and 2 after four-month storage
# Description: In a holder produced from a polyethylene film having a thickness of 30 μm, solution (C) (4 ml) was charged and the inlet was melt-sealed, to thereby obtain a holder for the solution containing vitamin D3. The surface area of a solution-holding portion of the holder was 16 cm^2 and the volume of polyethylene constituting the solution-holding portion was 0.048 cm^3.
# In a polyethylene-made two-compartment container (see FIG. 2), the above-described holder for vitamin D3 solution had been previously attached to one of the compartments. Solution (A) (600 ml) and solution (B) (300 ml) were charged into two compartments separately in an atmosphere replaced with nitrogen, and the container was sealed. Subsequently, the container was subjected to autoclaving through a customary method, to thereby obtain a transfusion product. The transfusion product was wrapped in a light-shielding nylon multi-layer bag together with a deoxidizing agent (trade name: Ageless, product of Mitsubishi Gas Chem. Co., Inc.).
# In the same manner as in Example 1, solution (A), solution (B), and solution (C), having the compositions shown in Table 2, were prepared, and these solutions were charged into a holder and two compartments of a transfusion fluid container as described in Example 1. Subsequently, the container was subjected to autoclaving, to thereby obtain a transfusion product. […]
# [3] = Vitamin contents in transfusion fluid containers of Examples 4 and 5 after autoclaving and 40° C. four-month storage, bioassay (vitamin B12, biotin) or HPLC (other vitamins)
# Description: In a holder produced from a three-layered film (the thickness of each layer: 10 μm) in which the outer and the inner layers are made of polyethylene and the intermediate layer is made of ethylene.tetracyclododecene copolymer (trade name: Apel, product of Mitsui Chemicals, Inc.), solution (C) (4 ml) was charged and the inlet was melt-sealed. In a two-compartment container, the prepared holder was attached to one of the compartments. […] The above-described transfusion fluid containers in Examples 4 and 5 were allowed to stand at 40° C. for four months after autoclaving. Thereafter, the contents of vitamins in the containers were measured through a bioassay according to Pharmacopoeia of Japan (for vitamin B12 and biotin) or through HPLC (for other vitamins). The content of each vitamin is represented by a percentage (%) of the initially incorporated amount.
smiles,measurement,setting,value
"C=C1CC[C@H](O)C/C1=C/C=C1\CCC[C@]2(C)[C@@H]([C@H](C)CCCC(C)C)CC[C@@H]12 [Vitamin D3, cholecalciferol]",Vitamin content (%) of initially incorporated amount,"[1]; holder No. 1, polyethylene, 30 μm, resin 7.4 cm^3 per μmol vitamin D, 40° C., 4 months",86.2%
same,Vitamin content (%) of initially incorporated amount,"[1]; holder No. 1, polyethylene, 30 μm, resin 7.4 cm^3 per μmol vitamin D, after sterilization",95.4%
same,Vitamin content (%) of initially incorporated amount,"[1]; holder No. 2, polyethylene, 100 μm, resin 18.5 cm^3 per μmol vitamin D, 40° C., 4 months",81.3%
same,Vitamin content (%) of initially incorporated amount,"[1]; holder No. 2, polyethylene, 100 μm, resin 18.5 cm^3 per μmol vitamin D, after sterilization",94.6%
same,Vitamin content (%) of initially incorporated amount,"[1]; holder No. 3, polypropylene, 30 μm, resin 7.4 cm^3 per μmol vitamin D, 40° C., 4 months",85.8%
same,Vitamin content (%) of initially incorporated amount,"[1]; holder No. 3, polypropylene, 30 μm, resin 7.4 cm^3 per μmol vitamin D, after sterilization",96.2%
same,Vitamin content (%) of initially incorporated amount,"[1]; holder No. 4, polyethylene, 250 μm, resin 123.2 cm^3 per μmol vitamin D, 40° C., 4 months",66.3%
same,Vitamin content (%) of initially incorporated amount,"[1]; holder No. 4, polyethylene, 250 μm, resin 123.2 cm^3 per μmol vitamin D, 40° C., 4 months, listed as vitamin D3",fell outside the acceptable range
same,Vitamin content (%) of initially incorporated amount,"[1]; holder No. 4, polyethylene, 250 μm, resin 123.2 cm^3 per μmol vitamin D, after sterilization",89.8%
same,Vitamin content (%) of initially incorporated amount,"[1]; holder No. 5, polypropylene, 250 μm, resin 123.2 cm^3 per μmol vitamin D, 40° C., 4 months",69.1%
same,Vitamin content (%) of initially incorporated amount,"[1]; holder No. 5, polypropylene, 250 μm, resin 123.2 cm^3 per μmol vitamin D, 40° C., 4 months, listed as vitamin D3",fell outside the acceptable range
same,Vitamin content (%) of initially incorporated amount,"[1]; holder No. 5, polypropylene, 250 μm, resin 123.2 cm^3 per μmol vitamin D, after sterilization",87.5%
same,Vitamin content after storage (acceptable range ≧80%),[2],≥ 80%
same,"Vitamin content, percentage (%) of the initially incorporated amount","[3]; Example 4 transfusion fluid container, 40° C., 4 months",88.7%
same,"Vitamin content, percentage (%) of the initially incorporated amount","[3]; Example 4 transfusion fluid container, immediately after sterilization",89.8%
same,"Vitamin content, percentage (%) of the initially incorporated amount","[3]; Example 5 transfusion fluid container, 40° C., 4 months",89.6%
same,"Vitamin content, percentage (%) of the initially incorporated amount","[3]; Example 5 transfusion fluid container, immediately after sterilization",90.1%
